Experimental data reported in the supplement of paper PMC10307832.

How the values were obtained:
Assay in all cases: relative viability (nuclei count vs DMSO), 5 days (fraction); higher = more cells survive
Carfilzomib + Alpelisib = compound: CC(C)C[C@H](NC(=O)[C@H](CCc1ccccc1)NC(=O)CN1CCOCC1)C(=O)N[C@@H](Cc1ccccc1)C(=O)N[C@@H](CC(C)C)C(=O)[C@@]1(C)CO1 [Carfilzomib] + Cc1nc(NC(=O)N2CCC[C@H]2C(N)=O)sc1-c1ccnc(C(C)(C)C(F)(F)F)c1 [Alpelisib] (partner 2 µM)
Procedure, shortened: (§1)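 Relative viability equals treated-well nuclei counts divided by vehicle-well nuclei counts. Counts came from 4× images of lung cancer cell lines grown in 1536-well plates for 5 days after pin-tool dosing on the day after seeding. Dosing used one drug alone or a fixed anchor-drug dose plus five library-drug doses (not always all listed) in √10 steps, and values are medians of duplicate plates.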

Crizotinib + Foretinib = compound: C[C@@H](Oc1cc(-c2cnn(C3CCNCC3)c2)cnc1N)c1c(Cl)ccc(F)c1Cl [Crizotinib] + COc1cc2c(Oc3ccc(NC(=O)C4(C(=O)Nc5ccc(F)cc5)CC4)cc3F)ccnc2cc1OCCCN1CCOCC1 [Foretinib] (partner 0.25 µM)
Procedure, shortened: as §1

Crizotinib + Alpelisib = compound: C[C@@H](Oc1cc(-c2cnn(C3CCNCC3)c2)cnc1N)c1c(Cl)ccc(F)c1Cl [Crizotinib] + Cc1nc(NC(=O)N2CCC[C@H]2C(N)=O)sc1-c1ccnc(C(C)(C)C(F)(F)F)c1 [Alpelisib] (partner 2 µM)
Procedure, shortened: as §1

Olaparib + Pictilisib = compound: O=C(c1cc(Cc2n[nH]c(=O)c3ccccc23)ccc1F)N1CCN(C(=O)C2CC2)CC1 [Olaparib] + CS(=O)(=O)N1CCN(Cc2cc3nc(-c4cccc5[nH]ncc45)nc(N4CCOCC4)c3s2)CC1 [Pictilisib] (partner 1 µM)
Procedure, shortened: as §1

| Cell Line | relative viability (Carfilzomib + Alpelisib; first compound 0.001 µM) | relative viability (Carfilzomib + Alpelisib; first compound 0.003162 µM) | relative viability (Carfilzomib + Alpelisib; first compound 0.01 µM) | relative viability (Carfilzomib + Alpelisib; first compound 0.03162 µM) | relative viability (Carfilzomib + Alpelisib; first compound 0.1 µM) | relative viability (Crizotinib + Foretinib; first compound 0.03162 µM) | relative viability (Crizotinib + Foretinib; first compound 0.1 µM) | relative viability (Crizotinib + Foretinib; first compound 1 µM) | relative viability (Crizotinib + Alpelisib; first compound 0.01 µM) | relative viability (Crizotinib + Alpelisib; first compound 0.03162 µM) | relative viability (Crizotinib + Alpelisib; first compound 0.1 µM) | relative viability (Crizotinib + Alpelisib; first compound 1 µM) | relative viability (Olaparib + Pictilisib; first compound 0.08 µM) | relative viability (Olaparib + Pictilisib; first compound 0.253 µM) | relative viability (Olaparib + Pictilisib; first compound 2.53 µM) | relative viability (Olaparib + Pictilisib; first compound 8 µM) | relative viability (Crizotinib + Foretinib; first compound 0.01 µM) | relative viability (Crizotinib + Foretinib; first compound 0.3162 µM) | relative viability (Crizotinib + Alpelisib; first compound 0.3162 µM) |
| --- | --- | --- | --- | --- | --- | --- | --- | --- | --- | --- | --- | --- | --- | --- | --- | --- | --- | --- | --- |
| NCI-H441 | 0.946 | 0.842 | 0.2 | 0.102 | 0.15 | 0.958 | 0.931 | 0.825 | 0.795 | 0.648 | 0.859 | 0.711 | 0.676 | 0.387 | 0.552 | 0.456 | – | – | – |
| NCI-H460 | 0.556 | 0.462 | 0.538 | 0.101 | 0.0126 | 1.05 | 0.996 | 1.07 | 0.495 | 0.404 | 0.46 | 0.442 | 0.404 | 0.319 | 0.342 | 0.27 | 0.801 | 1.02 | 0.504 |
| NCI-H520 | 1.11 | 0.951 | 0.574 | 0.138 | 0.137 | 0.827 | 0.804 | 0.538 | 0.726 | 0.92 | 0.891 | 0.962 | 0.318 | 0.315 | 0.278 | 0.236 | 0.757 | – | 1.07 |
| NCI-H596 | 0.467 | 0.566 | 0.464 | 0.276 | 0.194 | 0.898 | 0.85 | 0.835 | 0.396 | 0.528 | 0.509 | 0.481 | 0.417 | 0.381 | 0.45 | 0.394 | 0.854 | 1.11 | 0.564 |
| NCI-H647 | 1.14 | 1.19 | 0.71 | 0.025 | 0.0242 | 1.24 | 1.19 | 1.22 | 1.08 | 1.16 | 1.02 | 1.01 | 0.66 | – | 0.486 | 0.515 | 1.2 | 1.18 | 0.933 |
| NCI-H650 | 1.09 | 1.3 | 1.21 | 1.09 | 0.164 | 0.998 | 1.03 | 0.99 | 0.955 | 1.2 | 1.06 | 1.17 | 1.03 | 0.912 | 0.661 | 0.748 | 1.03 | 0.977 | 1.06 |
| NCI-H661 | 0.778 | 0.93 | 0.495 | 0.615 | 0.181 | – | 1.01 | 0.98 | 0.665 | 0.684 | 0.615 | 0.725 | 0.431 | 0.399 | 0.439 | 0.386 | 0.941 | 1.08 | 0.699 |
| NCI-H727 | 0.683 | 0.542 | 0.655 | 0.421 | 0.0733 | 1.24 | 0.957 | 1.22 | 0.655 | 0.575 | 0.583 | 0.685 | 0.416 | 0.446 | 0.352 | 0.284 | – | – | 0.674 |
| NCI-H838 | 0.979 | 1.09 | 1.06 | 0.992 | 0.122 | 1.04 | 1.01 | 1.02 | 0.997 | – | 1.03 | 0.964 | 0.452 | 0.439 | 0.519 | 0.408 | 0.961 | 0.994 | – |
| NCI-H1299 | 1.1 | 1.01 | 1.06 | 1.02 | 0.257 | 1.07 | 1.04 | 1.06 | 1.12 | 1.03 | 0.999 | 1 | 0.815 | 0.805 | 0.8 | 0.582 | 1.03 | 1.08 | 1.13 |
| NCI-H1355 | 0.753 | 0.767 | 0.737 | 0.584 | 0.139 | 0.81 | 0.922 | 0.959 | 0.832 | 0.806 | 0.857 | 0.878 | 0.537 | 0.397 | 0.408 | 0.444 | 0.935 | 0.916 | 0.849 |
| NCI-H1395 | 0.995 | 1.27 | 1.19 | 0.335 | 0.356 | 0.937 | – | 0.959 | 0.996 | 0.928 | 1.09 | 1.26 | 0.78 | 0.639 | 0.575 | 0.534 | 0.827 | 0.941 | 1.11 |
| NCI-H1437 | 0.982 | 1.01 | 0.943 | 0.54 | 0.101 | 1.22 | 1.25 | 1.32 | 0.869 | 0.973 | 0.925 | 0.907 | 0.373 | 0.395 | 0.501 | 0.381 | 1.14 | 1.27 | 0.938 |
| NCI-H1563 | 1.04 | 0.866 | 0.877 | 0.812 | 0.569 | – | 0.888 | 1.05 | 0.85 | 0.838 | 1.03 | 0.782 | 0.614 | 0.645 | 0.695 | 0.635 | 0.93 | 0.904 | 0.938 |
| NCI-H1651 | 0.927 | 0.881 | 0.725 | 0.0951 | 0.0668 | 0.725 | 0.843 | 0.902 | 0.823 | 0.933 | 0.858 | 0.965 | 0.62 | 0.562 | 0.599 | 0.331 | 0.615 | 0.864 | – |
| NCI-H1666 | 1.06 | 1.05 | 1.03 | 0.3 | 0.231 | 0.969 | 0.99 | 0.955 | 0.964 | – | 1 | 0.959 | 0.637 | 0.33 | 0.488 | 0.52 | 0.921 | 0.964 | 0.984 |
| NCI-H1703 | 0.246 | 0.334 | 0.126 | 0.112 | 0.122 | 0.295 | 0.358 | 0.331 | 0.285 | 0.299 | 0.329 | 0.366 | 0.299 | 0.346 | 0.275 | 0.27 | 0.362 | 0.398 | 0.364 |
